# From patent publication EP0626016B1, “[…] […]” (BRITISH TECHNOLOGY GROUP LIMITED, priority 1992, dated 1993)
# Where two headings read alike, the source gives them in different places.
# Experiments:
# HRP [1] = target: T1, HRP (Armoracia rusticana, UniProt P00433); assay: CPA as enhancer of the luminol-H2O2-HRP reaction, Amerlite microplate reader (Example 9); assay type: biochemical, horseradish
# T1 construct: purchased Sigma Chemical Co
# T1 sequence (P00433 31-338): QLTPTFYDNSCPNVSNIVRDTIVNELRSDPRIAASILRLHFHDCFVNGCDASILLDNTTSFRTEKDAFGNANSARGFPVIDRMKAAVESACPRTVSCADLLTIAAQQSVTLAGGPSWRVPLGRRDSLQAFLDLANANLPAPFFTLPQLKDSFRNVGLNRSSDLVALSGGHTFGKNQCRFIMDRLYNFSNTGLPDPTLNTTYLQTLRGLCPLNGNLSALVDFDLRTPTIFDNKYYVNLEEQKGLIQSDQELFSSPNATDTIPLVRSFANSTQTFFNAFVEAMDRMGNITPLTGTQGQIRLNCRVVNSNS
# Method: (§1) PBBA was added in various concentrations (range 0.05µg to 0.5µg) to a luminol-H2O2 reaction in the presence and absence of HRP. The luminol-hydrogen peroxide reagent was prepared as follows: sodium luminol (12.5mg) was dissolved in 50ml of Tris buffer (0.1mol/l, pH 8.6), and 15.5µl of hydrogen peroxide (30% w/v) was mixed with 0.5ml of Tris buffer (0.lmol/l, pH 8.6). These two solutions were combined and protected from light. The luminol-hydrogen peroxide reagent (100µl of a 1:10 dilution) was added to a cuvette together with either 10µl of HRP Type VI A (HRP, Sigma Chemical Co., 1:50,000 dilution) or as a control 10µl of Tris Buffer (0.1mol/l, pH 8.6), and various amounts of PBBA (Aldrich Chemical Co.), range 0.05µg-0.5µg in 0.1mol/l Tris, pH 8.6). The reagents were mixed and the light emission recorded after 5 minutes on a Berthold Biolumat LB9500C.
# The experiment of Example 1 was repeated using CPA in place of PBBA. Various dilutions of CPA (Cookson Chemicals Ltd., Southampton, UK, […] in 1 mg/ml Tris buffer, pH 8.6) were used. […] "Amerlite" is a Registered Trade Mark.
# HRP Type VIA [2] = target: T2, HRP Type VIA (Armoracia rusticana, UniProt P00433); assay: Effect of organoboron compounds on the luminol-hydrogen peroxide-HRP chemiluminescent reaction (Example 2); assay type: biochemical, horseradish; parameters: purchased Sigma Chemical Co; settings: test
# T2 sequence (P00433 31-338): T1 sequence (P00433 31-338)
# Method: The stock solution of HRP Type VIA (1mg/ml) and luminol-hydrogen peroxide reagent were prepared as described previously. Luminol-hydrogen peroxide (100µl, 1:10 dilution) was mixed with either 10µl of HRP (1:50,000 dilution) or, 10µl of Tris buffer (0.1mol/l, pH 8.6). […] A control without any test compound was run in parallel.
# The control consisted of buffer in place of the compound under test as an enhancer. […]
# HRP [3] = target: T1, HRP; assay: PIBA enhancement of the HRP-luminol-peroxide reaction (Example 7); assay type: biochemical, horseradish; settings: for Signal: Background ratio: at 1 minute
# Method: as §1, with “The reagents were mixed and the light emission recorded after 5 minutes on a Berthold Biolumat LB9500C.” left out
# The experiment of Example 1 was repeated using PIBA in place of PBBA. Various dilutions of PIBA (Cookson Chemicals Ltd., Southampton, UK, 1mg/ml stock in DMSO) in Tris buffer were used. […]
# HRP Type VIA [4] = target: T2, HRP Type VIA; settings: 10µl test compound; for (d) Signal: Background: ratio (control = with no enhancer): control value in brackets not reported
compound,measurement,setting,value
"O=C(O)C=Cc1ccc(B(O)O)cc1 [CPA, 4-(2-carboxyethenyl)phenylboronic acid]",Signal (no HRP),HRP [1]; CPA 0.01 µg,0.094
same,Signal (with HRP),HRP [1]; CPA 0.01 µg,0.41
same,Signal: Background ratio,HRP [1]; CPA 0.01 µg,4.4
same,Signal (no HRP),HRP [1]; CPA 0.02 µg,0.09
same,Signal (with HRP),HRP [1]; CPA 0.02 µg,0.46
same,Signal: Background ratio,HRP [1]; CPA 0.02 µg,5.1
same,Signal (no HRP),HRP [1]; CPA 0.05 µg,0.09
same,Signal (with HRP),HRP [1]; CPA 0.05 µg,0.68
same,Signal: Background ratio,HRP [1]; CPA 0.05 µg,7.6
same,Signal (no HRP),HRP [1]; CPA 0.1 µg,0.09
same,Signal (with HRP),HRP [1]; CPA 0.1 µg,1.23
same,Signal: Background ratio,HRP [1]; CPA 0.1 µg,14.2
same,Signal (no HRP),HRP [1]; CPA 0.2 µg,0.08
same,Signal (with HRP),HRP [1]; CPA 0.2 µg,2.37
same,Signal: Background ratio,HRP [1]; CPA 0.2 µg,28.2
same,Signal (no HRP),HRP [1]; CPA 0.5 µg,0.07
same,Signal (with HRP),HRP [1]; CPA 0.5 µg,4.57
same,Signal: Background ratio,HRP [1]; CPA 0.5 µg,63.4
same,Signal (no HRP),HRP [1]; CPA 1.0 µg,0.06
same,Signal (with HRP),HRP [1]; CPA 1.0 µg,5.58
same,Signal: Background ratio,HRP [1]; CPA 1.0 µg,93.0
same,Signal (no HRP),HRP [1]; CPA 10 µg,0.02
same,Signal (with HRP),HRP [1]; CPA 10 µg,2.49
same,Signal: Background ratio,HRP [1]; CPA 10 µg,124.9
same,Signal (no HRP),HRP [1]; CPA 20 µg,0.003
same,Signal (with HRP),HRP [1]; CPA 20 µg,0.88
same,Signal: Background ratio,HRP [1]; CPA 20 µg,43.9
"OB(O)c1ccc(Cl)cc1Cl [Compound 5002, 2,4-dichlorophenylboronic acid]",Signal (no HRP),HRP Type VIA [2]; 5µl of 1mg/ml compound,"16,246"
same,Signal (with HRP),HRP Type VIA [2]; 5µl of 1mg/ml compound,"128,274"
same,Signal: Background ratio,HRP Type VIA [2]; 5µl of 1mg/ml compound,7.9
"OB(O)c1ccccc1 [Compound 5004, phenylboronic acid]",Signal (no HRP),HRP Type VIA [2]; 5µl of 1mg/ml compound,"5,601"
same,Signal (with HRP),HRP Type VIA [2]; 5µl of 1mg/ml compound,"54,554"
same,Signal: Background ratio,HRP Type VIA [2]; 5µl of 1mg/ml compound,9.7
"OB(O)c1ccc(I)cc1 [PIBA, para-iodophenylboronic acid]","Light emission at 1 minute, Background",HRP [3]; PIBA 0.01 µg,"12,862"
same,"Light emission at 1 minute, Signal",HRP [3]; PIBA 0.01 µg,"78,419"
same,Signal: Background ratio,HRP [3]; PIBA 0.01 µg,6.1
same,"Light emission at 1 minute, Background",HRP [3]; PIBA 0.1 µg,"13,221"
same,"Light emission at 1 minute, Signal",HRP [3]; PIBA 0.1 µg,"74,487"
same,Signal: Background ratio,HRP [3]; PIBA 0.1 µg,7.1
same,"Light emission at 1 minute, Background",HRP [3]; PIBA 1 µg,"10,282"
same,"Light emission at 1 minute, Signal",HRP [3]; PIBA 1 µg,"324,312"
same,Signal: Background ratio,HRP [3]; PIBA 1 µg,31.5
same,"Light emission at 1 minute, Background",HRP [3]; PIBA 10 µg,"5,517"
same,"Light emission at 1 minute, Signal",HRP [3]; PIBA 10 µg,"540,760"
same,Signal: Background ratio,HRP [3]; PIBA 10 µg,98
same,"Light emission at 1 minute, Background",HRP [3]; PIBA 20 µg,"3,837"
same,"Light emission at 1 minute, Signal",HRP [3]; PIBA 20 µg,"135,065"
same,Signal: Background ratio,HRP [3]; PIBA 20 µg,35.2
boroglycine [Compound 1015],(a) Decrease in background (without HRP with test cpd.),HRP Type VIA [4]; 0.01 mg/ml,Y
same,"(b) Increase in signal (with HRP, with test cpd.)",HRP Type VIA [4]; 0.01 mg/ml,Y
same,(c) Increase in signal: background ratio,HRP Type VIA [4]; 0.01 mg/ml,N (N = no)
same,(d) Signal: Background: ratio (control = with no enhancer),HRP Type VIA [4]; 0.01 mg/ml,2.3
same,(a) Decrease in background (without HRP with test cpd.),HRP Type VIA [4]; 0.1 mg/ml,Y
same,"(b) Increase in signal (with HRP, with test cpd.)",HRP Type VIA [4]; 0.1 mg/ml,Y
same,(c) Increase in signal: background ratio,HRP Type VIA [4]; 0.1 mg/ml,Y (Column (c) shows whether there was an increase in the signal:background ratio by over 25% of the control value (Y = yes)
same,(d) Signal: Background: ratio (control = with no enhancer),HRP Type VIA [4]; 0.1 mg/ml,2.9
same,(a) Decrease in background (without HRP with test cpd.),HRP Type VIA [4]; 1 mg/ml,Y
same,"(b) Increase in signal (with HRP, with test cpd.)",HRP Type VIA [4]; 1 mg/ml,N
same,(c) Increase in signal: background ratio,HRP Type VIA [4]; 1 mg/ml,Y (Column (c) shows whether there was an increase in the signal:background ratio by over 25% of the control value (Y = yes)
same,(d) Signal: Background: ratio (control = with no enhancer),HRP Type VIA [4]; 1 mg/ml,3.1 (2.1)
butaneborinic acid [Compound 5005],Signal (no HRP),HRP Type VIA [2]; 40µl of 1mg/ml compound,"54,389"
same,Signal (with HRP),HRP Type VIA [2]; 40µl of 1mg/ml compound,"65,197"
same,Signal: Background ratio,HRP Type VIA [2]; 40µl of 1mg/ml compound,1.2
dimethylphenylboronic acid [Compound 1036],(a) Decrease in background (without HRP with test cpd.),HRP Type VIA [4]; 0.01 mg/ml,Y
same,"(b) Increase in signal (with HRP, with test cpd.)",HRP Type VIA [4]; 0.01 mg/ml,N
same,(c) Increase in signal: background ratio,HRP Type VIA [4]; 0.01 mg/ml,Y (Column (c) shows whether there was an increase in the signal:background ratio by over 25% of the control value (Y = yes)
same,(d) Signal: Background: ratio (control = with no enhancer),HRP Type VIA [4]; 0.01 mg/ml,2.6 (2.0)
same,(a) Decrease in background (without HRP with test cpd.),HRP Type VIA [4]; 0.1 mg/ml,Y
same,"(b) Increase in signal (with HRP, with test cpd.)",HRP Type VIA [4]; 0.1 mg/ml,N
same,(c) Increase in signal: background ratio,HRP Type VIA [4]; 0.1 mg/ml,Y (Column (c) shows whether there was an increase in the signal:background ratio by over 25% of the control value (Y = yes)
same,(d) Signal: Background: ratio (control = with no enhancer),HRP Type VIA [4]; 0.1 mg/ml,7.6 (2.9)
same,(a) Decrease in background (without HRP with test cpd.),HRP Type VIA [4]; 1 mg/ml,Y
same,"(b) Increase in signal (with HRP, with test cpd.)",HRP Type VIA [4]; 1 mg/ml,N
same,(c) Increase in signal: background ratio,HRP Type VIA [4]; 1 mg/ml,N (N = no)
diphenylboronic anhydride [Compound 1048],(a) Decrease in background (without HRP with test cpd.),HRP Type VIA [4]; 0.01 mg/ml,Y
same,"(b) Increase in signal (with HRP, with test cpd.)",HRP Type VIA [4]; 0.01 mg/ml,Y
same,(c) Increase in signal: background ratio,HRP Type VIA [4]; 0.01 mg/ml,Y (Column (c) shows whether there was an increase in the signal:background ratio by over 25% of the control value (Y = yes)
same,(d) Signal: Background: ratio (control = with no enhancer),HRP Type VIA [4]; 0.01 mg/ml,3.1 (1.8)
same,(a) Decrease in background (without HRP with test cpd.),HRP Type VIA [4]; 0.1 mg/ml,Y
same,"(b) Increase in signal (with HRP, with test cpd.)",HRP Type VIA [4]; 0.1 mg/ml,Y
same,(c) Increase in signal: background ratio,HRP Type VIA [4]; 0.1 mg/ml,Y (Column (c) shows whether there was an increase in the signal:background ratio by over 25% of the control value (Y = yes)
same,(d) Signal: Background: ratio (control = with no enhancer),HRP Type VIA [4]; 0.1 mg/ml,139.0 (2.7)
same,(a) Decrease in background (without HRP with test cpd.),HRP Type VIA [4]; 1 mg/ml,Y
same,"(b) Increase in signal (with HRP, with test cpd.)",HRP Type VIA [4]; 1 mg/ml,N
same,(c) Increase in signal: background ratio,HRP Type VIA [4]; 1 mg/ml,Y (Column (c) shows whether there was an increase in the signal:background ratio by over 25% of the control value (Y = yes)
same,(d) Signal: Background: ratio (control = with no enhancer),HRP Type VIA [4]; 1 mg/ml,100.0 (4.5)
methyl-(2-tolylboronic acid)sulfoxide [Compound 1051],(a) Decrease in background (without HRP with test cpd.),HRP Type VIA [4]; 0.01 mg/ml,Y
same,"(b) Increase in signal (with HRP, with test cpd.)",HRP Type VIA [4]; 0.01 mg/ml,N
same,(c) Increase in signal: background ratio,HRP Type VIA [4]; 0.01 mg/ml,N (N = no)
same,(a) Decrease in background (without HRP with test cpd.),HRP Type VIA [4]; 0.1 mg/ml,Y
same,"(b) Increase in signal (with HRP, with test cpd.)",HRP Type VIA [4]; 0.1 mg/ml,N
same,(c) Increase in signal: background ratio,HRP Type VIA [4]; 0.1 mg/ml,N (N = no)
same,(a) Decrease in background (without HRP with test cpd.),HRP Type VIA [4]; 1 mg/ml,Y
same,"(b) Increase in signal (with HRP, with test cpd.)",HRP Type VIA [4]; 1 mg/ml,N
same,(c) Increase in signal: background ratio,HRP Type VIA [4]; 1 mg/ml,N (N = no)
